# Tests used:
# HK2 [1] = target: T1, HK2 (Homo sapiens, UniProt P52789); experiment: In vitro enzyme inhibition assay (G6P-DH coupled, NADH 340 nm); format: biochemical; settings: for Vmax: Lineweaver-Burk
# T1 construct: made in house; host or cells: E. coli BL21 (DE3)
# T1 sequence (P52789 1-917): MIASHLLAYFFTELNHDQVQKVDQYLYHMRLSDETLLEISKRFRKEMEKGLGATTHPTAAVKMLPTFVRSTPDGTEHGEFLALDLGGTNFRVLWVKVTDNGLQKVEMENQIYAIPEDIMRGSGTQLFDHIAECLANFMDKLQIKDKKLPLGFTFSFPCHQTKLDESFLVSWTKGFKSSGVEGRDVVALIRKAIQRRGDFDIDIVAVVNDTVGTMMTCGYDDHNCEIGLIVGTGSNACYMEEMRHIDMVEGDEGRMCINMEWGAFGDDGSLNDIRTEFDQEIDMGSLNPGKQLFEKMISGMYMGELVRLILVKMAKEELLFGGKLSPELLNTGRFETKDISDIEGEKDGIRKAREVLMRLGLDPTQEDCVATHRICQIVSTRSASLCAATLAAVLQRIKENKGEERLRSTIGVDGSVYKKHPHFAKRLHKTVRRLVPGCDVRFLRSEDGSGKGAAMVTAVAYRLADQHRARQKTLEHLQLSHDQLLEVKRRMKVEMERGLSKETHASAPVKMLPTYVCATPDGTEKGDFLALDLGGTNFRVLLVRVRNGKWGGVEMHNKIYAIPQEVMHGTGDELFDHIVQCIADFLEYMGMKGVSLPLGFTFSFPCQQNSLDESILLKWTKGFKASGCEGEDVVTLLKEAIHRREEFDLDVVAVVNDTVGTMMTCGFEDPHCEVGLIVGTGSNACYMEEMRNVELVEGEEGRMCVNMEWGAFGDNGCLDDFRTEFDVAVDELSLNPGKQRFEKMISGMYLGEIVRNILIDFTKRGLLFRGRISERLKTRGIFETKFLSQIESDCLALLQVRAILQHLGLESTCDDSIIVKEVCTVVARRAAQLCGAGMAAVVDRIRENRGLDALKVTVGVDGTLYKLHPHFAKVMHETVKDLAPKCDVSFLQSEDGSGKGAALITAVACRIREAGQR
# HK2 [2] = target: T1, HK2; experiment: as above; format: biochemical; settings: recombinant HK2; n.i means no enzyme inhibition; read-out: Enzyme IC50
# Protocol: (§1) Then 85 μL assay mix containing 100 mM Tris HCl pH 8.0, 5 mM MgCl2, 200 mM Glucose, 0.8 mM ATP, 1 mM NAD^+, 0.25 Units of G6P-DH, was added.
# SW480 cells [3] = experiment: Measurement of intracellular ATP level; format: cell-based, human; settings: 75, 150 and 300 μM, 48 h
# Protocol: After centrifugation, supernatants were assayed by ATP assay kit (KeyGen, Nanjing, China) to determine the generation of ATP. The assay was determined using the plate reader (Synergy HT, BioTek, USA) at 636 nm.
# G6P-DH = target: T2, G6P-DH (Leuconostoc mesenteroides, UniProt P11411); experiment: Interference with coupling enzyme; format: biochemical
# T2 construct: purchased Roche (Switzerland)
# T2 sequence (P11411 1-486): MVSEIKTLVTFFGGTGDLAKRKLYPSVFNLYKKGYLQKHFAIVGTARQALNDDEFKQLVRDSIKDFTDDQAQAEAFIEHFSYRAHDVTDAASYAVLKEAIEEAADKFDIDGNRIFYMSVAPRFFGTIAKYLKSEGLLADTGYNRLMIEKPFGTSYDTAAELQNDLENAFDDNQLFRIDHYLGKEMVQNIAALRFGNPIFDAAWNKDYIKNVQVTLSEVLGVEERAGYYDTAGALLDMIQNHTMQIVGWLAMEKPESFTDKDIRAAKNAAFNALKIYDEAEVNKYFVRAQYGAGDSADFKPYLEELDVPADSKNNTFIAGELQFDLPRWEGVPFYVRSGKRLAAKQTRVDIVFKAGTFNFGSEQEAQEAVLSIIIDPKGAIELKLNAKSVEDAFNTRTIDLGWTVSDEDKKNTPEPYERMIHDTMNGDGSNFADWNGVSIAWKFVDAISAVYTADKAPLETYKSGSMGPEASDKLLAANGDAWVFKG
# Protocol: as §1
# SW480 cells [4] = experiment: Determination of lactate generation; format: cell-based, human; settings: 48 h; versus untreated or Met treated control
# Protocol: After 48 h drug treatment, media was collected and assayed following the manufacturer’s instructions of Lactic Acid Production Detection kit (KeyGen, Nanjing, China) to measure the generation of lactic acid. The assay was determined using a plate reader (Synergy HT, BioTek, USA) at 530 nm. Met was used as a positive control.
# [5] = test system: SW480 cells transfected with HK2 siRNA; experiment: HK2 siRNA knock-down, CCK-8 cytotoxicity; format: cell-based, human; settings: compared with negative control siRNA cells
# Text: SW480 cells were transfected with either two siRNAs against HK2 or one nontargeting siRNA and cultured in 6-well plates according to the manufacturer’s instructions. The target sequences of oligo siRNAs were as follows: siRNA: 5'- […] -3', nontargeting siRNA (Negative control, NC): 5'- […] -3' [21].
# p-AMPKα in SW480 cells = experiment: Western blot analysis; format: cell-based, human; settings: 75, 150 and 300 μM
# Protocol: The harvested cells were lysed with radioimmunoprecipitation assay (RIPA) buffer (Beyotime, China). Insoluble debris was removed by centrifugation and the concentration of total proteins was determined using BCA Protein Assay Kit (Beyotime, China). Then lysate protein (20-40 μg) was subjected to 10% SDS-PAGE and electrophoretically transferred to polyvinylidene difluoride membranes (PVDF) (Millipore, USA). […] Protein bands were visualized using an enhanced chemiluminescence reagent (ECL Plus) (GE Healthcare, USA) after hybridization with a HRP conjugated secondary antibody. All experiments were performed in triplicate and analyzed by optical density.
# [6] = test system: SW480 xenograft tumor tissues; experiment: TUNEL and H&E staining assay; format: in vivo; settings: versus vehicle control
# Protocol: Apoptosis of tumor tissues was detected by terminal deoxynucleotidyl transferase (TdT)-mediated dUTP-biotin nick end labeling (TUNEL) stain, using an In Situ Cell Death Detection Kit (Roche, Switzerland). The hematoxylin-eosin (H&E) staining was performed to observe the pathological changes in different groups.
# SW480 cells [7] = experiment: Soft agar colony formation assay; format: cell-based, human; settings: 100 μM
# Protocol: About 0.6% agar was poured into the six-well plate. […] Media was changed every three days, and colonies were further observed for 10 days. Colonies were then stained with 0.01% of crystal violet staining solution for 2 h.
smiles,measurement,setting,value
"NC(CO)C(=O)NNCc1ccc(O)c(O)c1O (stereo not drawn) [Benz, Benserazide]",Vmax,HK2 [1]; Benz 5 μM,0.037 OD/min
same,Vmax,HK2 [1]; Benz 10 μM,0.029 OD/min
same,Vmax,HK2 [1]; Benz 20 μM,0.018 OD/min
same,mechanism of inhibition,HK2 [1]; versus glucose,combined mechanism of both competitive and noncompetitive binding
same,IC50,HK2 [2],5.52 ± 0.17 µM
same,intracellular ATP level,SW480 cells [3],reduced
same,interference with G6P-DH activity,G6P-DH,No Benz interference
same,concentration of lactate in cell culture supernatant,SW480 cells [4],remarkably decreased
same,cytotoxicity to HK2 siRNA transfected cells,[5],fewer effects
same,phosphorylation of AMPKα,p-AMPKα in SW480 cells,increased
same,"tumor apoptosis and pathological changes (TUNEL, H&E)",[6],induced tumor apoptosis and pathological changes
same,anchorage-independent growth (colony formation),SW480 cells [7],dramatically reduced the ability to form colonies

# — publication PMC5399312 (Journal of Experimental & Clinical Cancer Research : CR, 2017)
